Source: PMC10810714, “Antiretroviral Drug Exposure and Response in Obese and Morbidly Obese People With Human Immunodeficiency Virus (HIV): A Study Combining Modelling and Swiss HIV Cohort Data” (Clinical Infectious Diseases: An Official Publication of …, 2023)
Where two headings read alike, the source gives them in different places.

Key:
[1] = Observed pharmacokinetics of antiretrovirals in nonobese and obese individuals (SHCS therapeutic drug monitoring data and literature studies, noncompartmental analysis); settings: standard oral dose at steady state, SHCS TDM data with or without literature data; for AUC(0-t) / Cmax / half-life: human, plasma, po, nonobese individuals; for AUC(0-t): AUCt; for AUC(0-t) / Cmax: observed; for AUC(0-t) / Cmax / half-life / Cτ, observed, nonobese individuals: nonobese (BMI range per drug), GM; for half-life: t1/2, observed; for Cτ, observed, obese individuals: obese (BMI >=30, range per drug), GM (mean for etravirine)
Excerpt: (§1) We took several steps to analyse the impact of obesity on the ARVs exposure and response. First, we implemented our in-house PBPK model with our recently published virtual White obese population to simulate the pharmacokinetics of ARVs in nonobese and obese individuals. Next, we verified the simulations against the TDM data collected during the follow-up visits of the SHCS (multiple drug levels per individual were allowed [more information on the SHCS in the homonymous section in the Supplementary Material]). We then applied the verified model to extrapolate the pharmacokinetics across different obesity classes. Finally, the clinical relevance of obesity-related changes on drug response was evaluated by analyzing HIV viral load and the corresponding TDM values in obese and nonobese individuals in the SHCS.
(§2) All ARV drug models, except for doravirine (Supplementary Table 1), were previously developed and verified to predict the pharmacokinetics in healthy and elderly PWH [6, 12]. […] The TDM data were excluded if the participant’s age was younger than 20 or older than 50 years to avoid the age-related confounding effect on the pharmacokinetics, if a nonstandard ARV dosage was used, and if concurrent medications with inhibitory or inducing effects were used. The pharmacokinetic parameters including peak plasma concentration (Cmax), area under the curve to time t (AUCt), and trough concentration (Cτ) were derived from the TDM data using noncompartmental analysis.
(§3) A literature search was also performed to identify pharmacokinetic studies with ARVs conducted in obese and nonobese individuals. Data on the study design, characteristics of the participants, and pharmacokinetic results were collected. […] Available concentration-time profiles were digitalized using GetData Graph Digitizer V.2.26. The virtual trials were conducted by matching the participants’ demographics (eg, age, proportion of females, and BMI) and the ARV dosing regimen (Supplementary Table 2). The models were considered verified if the simulations were within 2-fold of observed data.
The Swiss HIV Cohort Study (SHCS) is an ongoing, nationwide, multicenter, clinic-based prospective cohort study in Switzerland with continuous enrollment and follow-up (twice a year) of people with HIV (PWH). Socio-demographic, clinical and laboratory data are recorded in detail. […] The collection of therapeutic drug monitoring (TDM) data in the SHCS database was initiated in 1998. All available TDM data for each evaluated antiretroviral drug were extracted from the SHCS database representing 6210 and 575 data points for the verification of the simulations in non-obese and obese individuals, respectively.

HIV viral load = assay: Drug response in obese versus nonobese participants in the SHCS (concentration below efficacy threshold and viral load >50 copies/mL)
Procedure: The viral load was analyzed in conjunction with the TDM data to evaluate whether a decrease in ARV exposure in obese PWH is associated with a viral load of more than 50 copies/mL (the viral load measured on the date of the TDM assessment was considered for this evaluation).

[2] = PBPK model virtual trials matched to the observed studies (model verification, nonobese vs obese); parameters: species or system human; settings: for AUCt, Ratio Predicted/Observed, Nonobese / Cmax, Ratio Predicted/Observed, Nonobese / Cτ, Ratio Predicted/Observed, Nonobese / t1/2, Ratio Predicted/Observed, Nonobese: nonobese individuals
Excerpt: as §1, §2, §3

[3] = cited from earlier work; for AUCt, observed, nonobese individuals / Cmax, observed, nonobese individuals / Cτ, observed, nonobese individuals / t1/2, observed, nonobese individuals: standard oral dose at steady state, GM (mean for etravirine, emtricitabine, tenofovir), literature studies only, ref Supplementary Table 2 [9-16, 21-24]
[4] = BMI 18.5–30 kg/m^2, viral load above 50 copies/mL
[5] = BMI >30 kg/m^2, viral load above 50 copies/mL
[6] = obese BMI 36–46 kg/m^2, 245 mg QD, mean, literature study only

Compound	AUC(0-t) [1] [ng·h/mL]	Cmax [1] [ng/mL]	half-life [1] [h]	Cτ, observed, nonobese individuals [1] [ng/mL]	% PWH with concentration below efficacy threshold (HIV viral load; BMI 18.5–30 kg/m^2) [%]	% PWH with virological failure amongst those with concentration below efficacy threshold (HIV viral load; [4]) [%]	% PWH with concentration below efficacy threshold (HIV viral load; BMI >30 kg/m^2) [%]	% PWH with virological failure amongst those with concentration below efficacy threshold (HIV viral load; [5]) [%]	AUCt, Ratio Predicted/Observed, Nonobese [2]	Cmax, Ratio Predicted/Observed, Nonobese [2]	Cτ, Ratio Predicted/Observed, Nonobese [2]	t1/2, Ratio Predicted/Observed, Nonobese [2]	Cτ, observed, obese individuals [1] [ng/mL]	AUCt, observed, nonobese individuals [3] [ng·h/mL]	Cmax, observed, nonobese individuals [3] [ng/mL]	Cτ, observed, nonobese individuals [3] [ng/mL]	also measured
O=C(NCc1c(F)cc(F)cc1F)c1cn2c(c(O)c1=O)C(=O)N1[C@H]3CC[C@H](C3)O[C@@H]1C2 [Bictegravir, bictegravir]	85800	5240	20.6	2373	1.5	0	0	0	0.97	0.87	1.01	1.27					Predictions within x-fold of observed clinical data ([2]; pharmacokinetic parameters in obese and nonobese individuals, 1.25-fold 'for the most part'): ≤ 1.5 fold
O=C1Nc2ccc(Cl)cc2[C@@](C#CC2CC2)(C(F)(F)F)O1 [Efavirenz, efavirenz]	52200	3170	20.2	1751	2.3	1.1	5.2	1.1					1512				
Nc1nc(=O)n([C@@H]2CS[C@H](CO)O2)cc1F [Emtricitabine, emtricitabine]									1.10	0.99	1.35	1.86		9589.4	1640.2	67.1	t1/2, observed, nonobese individuals [3]: 9.4 h
Cc1cc(C#N)cc(C)c1Oc1nc(Nc2ccc(C#N)cc2)nc(N)c1Br [Etravirine, etravirine]					32.1	11.9	10	0					313	7970	949	464	
Cc1nnc(C(=O)NC(C)(C)c2nc(C(=O)NCc3ccc(F)cc3)c(O)c(=O)n2C)o1 [Raltegravir, raltegravir]				142	4	1.6	4.7	0					171				
CC(C)c1nc(CN(C)C(=O)N[C@H](C(=O)N[C@@H](Cc2ccccc2)C[C@H](O)[C@H](Cc2ccccc2)NC(=O)OCc2cncs2)C(C)C)cs1 [Ritonavir, ritonavir]	5740	480	5.4	91.4									71.3				
C[C@H](Cn1cnc2c(N)ncnc21)OCP(=O)(O)O [Tenofovir, tenofovir]									1.06	1.00	1.11	1.15		2858.4	300.5	58.2	AUCt, Ratio Predicted/Observed, Obese ([2]; obese individuals): 0.95; Cmax, Ratio Predicted/Observed, Obese ([2]; obese individuals): 0.83; Cτ, Ratio Predicted/Observed, Obese ([2]; obese individuals): 1.13; t1/2, Ratio Predicted/Observed, Obese ([2]; obese individuals): 1.75; t1/2, observed, nonobese individuals [3]: 14.9 h; AUCt, observed, obese individuals [3, 6]: 2346 ng·h/mL; Cmax, observed, obese individuals [3, 6]: 263 ng/mL; Cτ, observed, obese individuals [3, 6]: 47 ng/mL; t1/2, observed, obese individuals [3, 6]: 13 h
darunavir/ritonavir						1.6		0									
